Assay results from ChEMBL document CHEMBL5120896, “Hydroanthraquinones from Nigrospora sphaerica and Their Anti-inflammatory Activity Uncovered by Transcriptome Analysis” (J Nat Prod, 2022).
Active and inactive are the calls of the source. The rule behind the calls is not given here.

Experiments:
RAW264.7 [1] = test: Cytotoxicity against mouse RAW264.7 cells assessed as reduction in cell viability at 80 uM incubated for 24 hrs by MTT assay; type: toxicity, cell-based; settings: raw264.7, 24 h
RAW264.7 [2] = test: Anti-inflammatory activity against mouse RAW264.7 cells assessed as inhibition of LPS-induced NO production at 60 uM pretreated for 1 hr followed by incubation with LPS and measured after 24 hrs by Griess reagent based analysis; type: functional, cell-based; settings: time 25.0 hrs
SW-620 = test: Cytotoxicity against human SW-620 cells assessed as reduction in metabolically active cells by MTT assay; type: functional, cell-based
RAW264.7 [3] = test: Anti-inflammatory activity against mouse RAW264.7 cells assessed as inhibition of LPS-induced ROS production at 10 to 40 uM pretreated for 1 hr followed by incubation with LPS for 24 hrs by DCFH-DA staining based fluorescence microscopy; type: functional, cell-based; settings: dose 10-40 µM, time 25.0 hrs
RAW264.7 [4] = test: Anti-inflammatory activity against mouse RAW264.7 cells assessed as inhibition of LPS-induced ROS production at 15 to 60 uM pretreated for 1 hr followed by incubation with LPS for 24 hrs by DCFH-DA staining based flow cytometry; type: functional, cell-based; settings: dose 15-60 µM, time 25.0 hrs
Danio rerio = organism: Danio rerio; test: Anti-inflammatory activity against Zebra fish embryo assessed as inhibition of LPS-induced ROS production at 5 uM pretreated with LPS followed by incubation with drug by fluorescence microscopy; type: functional, organism-based
RAW264.7 [5] = test: Anti-inflammatory activity against LPS-activated mouse RAW264.7 cells assessed as reduction of IL-6 gene expression at 7.5 to 30 uM pretreated for 1 hr followed by incubation with LPS for 24 hrs by qRT-PCR analysis; type: functional, cell-based; settings: dose 7.5-30 µM, time 25.0 hrs
RAW264.7 [6] = test: Anti-inflammatory activity against LPS-activated mouse RAW264.7 cells assessed as reduction of IL-1 beta gene expression at 7.5 to 30 uM pretreated for 1 hr followed by incubation with LPS for 24 hrs by qRT-PCR analysis; type: functional, cell-based; settings: dose 7.5-30 µM, time 25.0 hrs
RAW264.7 [7] = test: Anti-inflammatory activity against LPS-activated mouse RAW264.7 cells assessed as reduction of TNF-alpha gene expression at 7.5 to 30 uM pretreated for 1 hr followed by incubation with LPS for 24 hrs by qRT-PCR analysis; type: functional, cell-based; settings: dose 7.5-30 µM, time 25.0 hrs
RAW264.7 [8] = test: Anti-inflammatory activity against LPS-activated mouse RAW264.7 cells assessed as reduction of NFkappaB p52 gene expression at 7.5 to 30 uM pretreated for 1 hr followed by incubation with LPS for 24 hrs by qRT-PCR analysis; type: functional, cell-based; settings: dose 7.5-30 µM, time 25.0 hrs
RAW264.7 [9] = test: Downregulation of NF-kappaB expression in LPS-activated mouse RAW264.7 cells at 7.5 to 30 uM pretreated for 1 hr followed by incubation with LPS for 24 hrs by western blot analysis; type: functional, cell-based; settings: dose 7.5-30 µM, time 25.0 hrs
RAW264.7 [10] = test: Downregulation of phospho-IKKalpha/beta expression in LPS-activated mouse RAW264.7 cells at 7.5 to 30 uM pretreated for 1 hr followed by incubation with LPS for 24 hrs by western blot analysis; type: functional, cell-based; settings: dose 7.5-30 µM, time 25.0 hrs
RAW264.7 [11] = test: Inhibition of NF-kappaB in mouse RAW264.7 cells assessed as inhibition of LPS-induced NF-kappaB p65 nuclear translocation at 15 to 60 uM pretreated for 1 hr followed by incubation with LPS for 24 hrs by immunofluorescence analysis; type: cell-based; settings: dose 15-60 µM, time 25.0 hrs
RAW264.7 [12] = test: Anti-inflammatory activity against mouse RAW264.7 cells assessed as inhibition of LPS-induced NO production pretreated for 1 hr followed by incubation with LPS and measured after 24 hrs by Griess reagent based analysis; type: functional, cell-based

Row | SMILES | Activity (RAW264.7 [1]) | Activity (RAW264.7 [2]) | further results
1 | COc1cc(O)c2c(c1O)[C@H]1O[C@]3(C)C[C@H]1[C@@H](C[C@@H]3O)C2=O | Toxic | – | –
2 | COc1cc(O)c2c(c1O)[C@H](O)[C@H]1C[C@](C)(O)[C@H](O)C[C@H]1C2=O | – | Active | –
3 | COc1cc(O)c2c(c1O)C(O)C1C[C@](C)(O)[C@H](O)CC1C2=O (stereo partly drawn) | Toxic | – | –
4 | COc1cc(O)c2c(c1O)[C@@H](OC)[C@H]1C[C@](C)(O)[C@H](O)C[C@@H]1C2=O | – | Active | –
5 | COc1cc(O)c2c(c1O)C(=O)C1=C(C[C@@H](O)[C@@](C)(O)C1)C2=O | Toxic | – | –
6 | COc1cc(O)c2c(c1O)[C@H](OC)[C@H]1C[C@](C)(O)[C@H](O)C[C@@H]1C2=O | – | Active | –
7 | COc1cc(O)c2c(c1O)[C@H](O)[C@H]1C[C@](C)(O)C[C@@H](O)[C@@H]1C2=O | Toxic | – | –
8 | COc1cc(O)c2c(c1O)[C@H](O)[C@H]1C[C@](C)(O)[C@H](O)[C@@H](O)[C@@H]1C2=O [9ALPHA-HYDROXYHALOROSELLINIA A] | Toxic | – | –
9 | COc1cc(O)c2c(c1O)[C@@H](OC)[C@H]1C[C@](C)(O)[C@H](O)[C@@H](O)[C@@H]1C2=O | – | Active | –
10 | COc1cc(O)c2c(c1O)[C@H](OC)[C@H]1C[C@](C)(O)[C@H](O)[C@@H](O)[C@@H]1C2=O | – | Active | –
11 | COC1=CC(=O)c2c(cc3c(c2O)[C@H](O)[C@@H](O)[C@@](C)(O)C3)C1=O | Toxic | – | IC50 (SW-620): 13.7 µM
12 | COc1cc(O)c2c(c1N)C(=O)C1=C(C[C@@H](O)[C@@](C)(O)C1)C2=O | – | Active | –
13 | COc1cc(O)c2c(c1O)[C@H](OC)[C@H]1C[C@](C)(O)[C@H](O)[C@@H](O)[C@H]1C2=O | Toxic | – | –
14 | COc1cc(O)c2c(c1O)[C@H](O)[C@H]1C[C@](C)(O)[C@H](O)[C@@H](O)[C@H]1C2=O | – | Active | Activity (RAW264.7 [3]): Active; Activity (RAW264.7 [4]): Active; Activity (Danio rerio): Active; Activity (RAW264.7 [5]): Active; Activity (RAW264.7 [6]): Active; Activity (RAW264.7 [7]): Active; Activity (RAW264.7 [8]): Active; inhibition (RAW264.7 [9]): Active; inhibition (RAW264.7 [10]): Active; inhibition (RAW264.7 [11]): Active; IC50 (RAW264.7 [12]): 7.5 µM
15 | C[C@]1(O)C[C@@]2(O)[C@H](C[C@H]1O)C(=O)c1c(O)ccc(O)c1[C@@H]2O | – | Active | –
16 | COc1cc(O)c2c(c1O)C(=O)[C@H]1C[C@](C)(O)[C@H](O)[C@@H](O)[C@@H]1C2=O | – | Active | –
